Assay results: PubChem BioAssay AID2060329 (Molecular Pharmacology Branch, DTP, NCI, 2025)
“And” between values parts separate entries of the source, which are not always exact repeats. Identical values can stand only once.

Tested on: MCF7 multi-cell spheroids with HUVEC/MSC, viability
Test: Anticancer human tumor MCF7 cell line growth inhibition [IpAb];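 further: spheroids exposed to agents for seven days before readout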
Details: for viability, T/C: stronger effect = lower value
Outline: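 Multi-cell spheroids of 60% tumour cells, 25% HUVEC and 15% MSC in ultra-low-attachment U-bottom wells, treated with agents combined with ipatasertib or abemaciclib. Half-log ranges top out near clinical Cmax, or 10 microM when Cmax is unknown.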

[1] = curve of first compound, second compound 0.01 µM
[2] = curve of first compound, second compound 0.0316 µM
[3] = curve of first compound, second compound 0.1 µM
[4] = curve of first compound, second compound 0.316 µM
[5] = curve of first compound, second compound 1 µM
[6] = second compound 0.1 µM, first compound 0.00316 µM
[7] = second compound 0.1 µM, first compound 0.01 µM
[8] = second compound 0.1 µM, first compound 0.0316 µM
[9] = second compound 0.1 µM, first compound 0.1 µM
[10] = second compound 0.316 µM, first compound 0.00316 µM
[11] = second compound 0.316 µM, first compound 0.01 µM
[12] = second compound 0.316 µM, first compound 0.0316 µM
[13] = second compound 0.316 µM, first compound 0.1 µM
[14] = second compound 1 µM, first compound 0.00316 µM
[15] = second compound 1 µM, first compound 0.01 µM
[16] = second compound 1 µM, first compound 0.0316 µM
[17] = second compound 1 µM, first compound 0.1 µM
[18] = curve of first compound, second compound 3.16 µM
[19] = curve of first compound, second compound 10 µM
[20] = second compound 0.1 µM, first compound 0.00949 µM
[21] = second compound 0.1 µM, first compound 0.03 µM
[22] = second compound 0.1 µM, first compound 0.0949 µM
[23] = second compound 0.1 µM, first compound 0.3 µM
[24] = second compound 0.1 µM, first compound 0.949 µM
[25] = second compound 0.1 µM, first compound 3 µM
[26] = second compound 0.316 µM, first compound 0.00949 µM
[27] = second compound 0.316 µM, first compound 0.03 µM
[28] = second compound 0.316 µM, first compound 0.0949 µM
[29] = second compound 0.316 µM, first compound 0.3 µM
[30] = second compound 0.316 µM, first compound 0.949 µM
[31] = second compound 0.316 µM, first compound 3 µM
[32] = second compound 1 µM, first compound 0.00949 µM
[33] = second compound 1 µM, first compound 0.03 µM
[34] = second compound 1 µM, first compound 0.0949 µM
[35] = second compound 1 µM, first compound 0.3 µM
[36] = second compound 1 µM, first compound 0.949 µM
[37] = second compound 1 µM, first compound 3 µM

Cn1ncnc1[C@H]1c2n[nH]c(=O)c3cc(F)cc(c23)N[C@@H]1c1ccc(F)cc1 + CCN1CCN(Cc2ccc(Nc3ncc(F)c(-c4cc(F)c5nc(C)n(C(C)C)c5c4)n3)nc2)CC1
IC50 [1]: > 100 nM | IC50 [2]: > 100 nM | IC50 [3]: > 100 nM | IC50 [4]: > 100 nM | IC50 [5]: > 100 nM | viability, T/C (second compound 0.01 µM, first compound 0.000316 µM): 95.3% | viability, T/C (second compound 0.01 µM, first compound 0.001 µM): 102% | viability, T/C (second compound 0.01 µM, first compound 0.00316 µM): 115% | viability, T/C (second compound 0.01 µM, first compound 0.01 µM): 98.6% | viability, T/C (second compound 0.01 µM, first compound 0.0316 µM): 106% | viability, T/C (second compound 0.01 µM, first compound 0.1 µM): 92.5% | viability, T/C (second compound 0.0316 µM, first compound 0.000316 µM): 98.6% | viability, T/C (second compound 0.0316 µM, first compound 0.001 µM): 107% | viability, T/C (second compound 0.0316 µM, first compound 0.00316 µM): 83.8% | viability, T/C (second compound 0.0316 µM, first compound 0.01 µM): 89.4% | viability, T/C (second compound 0.0316 µM, first compound 0.0316 µM): 100% | viability, T/C (second compound 0.0316 µM, first compound 0.1 µM): 88.1% | viability, T/C (second compound 0.1 µM, first compound 0.000316 µM): 114% | viability, T/C (second compound 0.1 µM, first compound 0.001 µM): 103% | viability, T/C [6]: 107% | viability, T/C [7]: 87.5% | viability, T/C [8]: 85.1% | viability, T/C [9]: 85.3% | viability, T/C (second compound 0.316 µM, first compound 0.000316 µM): 108% | viability, T/C (second compound 0.316 µM, first compound 0.001 µM): 106% | viability, T/C [10]: 93.4% | viability, T/C [11]: 97.4% | viability, T/C [12]: 90.2% | viability, T/C [13]: 88.7% | viability, T/C (second compound 1 µM, first compound 0.000316 µM): 100% | viability, T/C (second compound 1 µM, first compound 0.001 µM): 105% | viability, T/C [14]: 84.4% | viability, T/C [15]: 100% | viability, T/C [16]: 85.3% | viability, T/C [17]: 85.7%

CC(C)(C)c1cnc(CSc2cnc(NC(=O)C3CCNCC3)s2)o1 + CC(C)NCC(C(=O)N1CCN(c2ncnc3c2C(C)CC3O)CC1)c1ccc(Cl)cc1
IC50 [3]: 89.4 nM | IC50 [4]: 87.5 nM | IC50 [5]: 81.1 nM | IC50 [18]: 40.4 nM | IC50 [19]: 9.49 nM | viability, T/C [20]: 87.9% | viability, T/C [21]: 98% | viability, T/C [22]: 47.7% | viability, T/C [23]: 22.2% | viability, T/C [24]: 29.6% | viability, T/C [25]: 32.6% | viability, T/C [26]: 83.9% | viability, T/C [27]: 87% | viability, T/C [28]: 47.3% | viability, T/C [29]: 22.4% | viability, T/C [30]: 29% | viability, T/C [31]: 29.9% | viability, T/C [32]: 76.5% | viability, T/C [33]: 75.6% | viability, T/C [34]: 45.9% | viability, T/C [35]: 21.6% | viability, T/C [36]: 25.3% | viability, T/C [37]: 28.9% | viability, T/C (second compound 3.16 µM, first compound 0.00949 µM): 54.8% | viability, T/C (second compound 3.16 µM, first compound 0.03 µM): 61.6% | viability, T/C (second compound 3.16 µM, first compound 0.0949 µM): 26.4% | viability, T/C (second compound 3.16 µM, first compound 0.3 µM): 20.2% | viability, T/C (second compound 3.16 µM, first compound 0.949 µM): 22.2% | viability, T/C (second compound 3.16 µM, first compound 3 µM): 24.9% | viability, T/C (second compound 10 µM, first compound 0.00949 µM): 47.1% | viability, T/C (second compound 10 µM, first compound 0.03 µM): 49.8% | viability, T/C (second compound 10 µM, first compound 0.0949 µM): 14.4% | viability, T/C (second compound 10 µM, first compound 0.3 µM): 17.9% | viability, T/C (second compound 10 µM, first compound 0.949 µM): 21.1% | viability, T/C (second compound 10 µM, first compound 3 µM): 22.1%

CC1(C)CCC(CN2CCN(c3ccc(C(=O)NS(=O)(=O)c4ccc(NCC5CCOCC5)c([N+](=O)[O-])c4)c(Oc4cnc5[nH]ccc5c4)c3)CC2)=C(c2ccc(Cl)cc2)C1
viability, T/C (compound 0.0316 µM): 88.4% and 102% | viability, T/C (compound 0.1 µM): 102% and 108% | viability, T/C (compound 0.316 µM): 97.2% and 109% | viability, T/C (compound 1 µM): 94.4% and 98.2% | viability, T/C (compound 3.16 µM): 84.6% and 98.1% | viability, T/C (compound 10 µM): 16.5% and 20.3% | IC50 (curve of compound): 5680 nM and 6450 nM

CC(C)(C)c1cnc(CSc2cnc(NC(=O)C3CCNCC3)s2)o1
viability, T/C (compound 0.00949 µM): 105% and 109% | viability, T/C (compound 0.03 µM): 100% and 104% | viability, T/C (compound 0.0949 µM): 51.5% and 37.9% | viability, T/C (compound 0.3 µM): 22% and 24.1% | viability, T/C (compound 0.949 µM): 27.4% and 28.2% | viability, T/C (compound 3 µM): 35.6% and 32.6% | IC50 (curve of compound): 100 nM and 76.7 nM

COc1c(OCCCN2CCOCC2)ccc2c3n(c(=NC(=O)c4cnc(N)nc4)nc12)CCN3 + CC(C)NCC(C(=O)N1CCN(c2ncnc3c2C(C)CC3O)CC1)c1ccc(Cl)cc1
IC50 [3]: 49.2 nM | IC50 [4]: 31.7 nM | IC50 [5]: 14.6 nM | IC50 [18]: < 3.16 nM | IC50 [19]: < 3.16 nM | viability, T/C [6]: 86% | viability, T/C [7]: 80.2% | viability, T/C [8]: 58.3% | viability, T/C [9]: 37% | viability, T/C (second compound 0.1 µM, first compound 0.316 µM): 9.3% | viability, T/C (second compound 0.1 µM, first compound 1 µM): 11.8% | viability, T/C [10]: 75.1% | viability, T/C [11]: 65.8% | viability, T/C [12]: 49.8% | viability, T/C [13]: 30.5% | viability, T/C (second compound 0.316 µM, first compound 0.316 µM): 9.83% | viability, T/C (second compound 0.316 µM, first compound 1 µM): 12.4% | viability, T/C [14]: 61.9% | viability, T/C [15]: 56.4% | viability, T/C [16]: 37.7% | viability, T/C [17]: 22% | viability, T/C (second compound 1 µM, first compound 0.316 µM): 10.7% | viability, T/C (second compound 1 µM, first compound 1 µM): 11.2% | viability, T/C (second compound 3.16 µM, first compound 0.00316 µM): 45.9% | viability, T/C (second compound 3.16 µM, first compound 0.01 µM): 48.7% | viability, T/C (second compound 3.16 µM, first compound 0.0316 µM): 35.4% | viability, T/C (second compound 3.16 µM, first compound 0.1 µM): 32% | viability, T/C (second compound 3.16 µM, first compound 0.316 µM): 9.39% | viability, T/C (second compound 3.16 µM, first compound 1 µM): 10.6% | viability, T/C (second compound 10 µM, first compound 0.00316 µM): 33.8% | viability, T/C (second compound 10 µM, first compound 0.01 µM): 34.9% | viability, T/C (second compound 10 µM, first compound 0.0316 µM): 37.4% | viability, T/C (second compound 10 µM, first compound 0.1 µM): 21.7% | viability, T/C (second compound 10 µM, first compound 0.316 µM): 6.28% | viability, T/C (second compound 10 µM, first compound 1 µM): 5.07%

CC(C)(C)c1cnc(CSc2cnc(NC(=O)C3CCNCC3)s2)o1 + CCN1CCN(Cc2ccc(Nc3ncc(F)c(-c4cc(F)c5nc(C)n(C(C)C)c5c4)n3)nc2)CC1
IC50 [1]: 74.4 nM | IC50 [2]: 67 nM | IC50 [3]: 64.7 nM | IC50 [4]: 51.8 nM | IC50 [5]: 17.2 nM | viability, T/C (second compound 0.01 µM, first compound 0.00949 µM): 112% | viability, T/C (second compound 0.01 µM, first compound 0.03 µM): 93% | viability, T/C (second compound 0.01 µM, first compound 0.0949 µM): 38.9% | viability, T/C (second compound 0.01 µM, first compound 0.3 µM): 23.7% | viability, T/C (second compound 0.01 µM, first compound 0.949 µM): 27.4% | viability, T/C (second compound 0.01 µM, first compound 3 µM): 29.8% | viability, T/C (second compound 0.0316 µM, first compound 0.00949 µM): 102% | viability, T/C (second compound 0.0316 µM, first compound 0.03 µM): 97.8% | viability, T/C (second compound 0.0316 µM, first compound 0.0949 µM): 29.4% | viability, T/C (second compound 0.0316 µM, first compound 0.3 µM): 19.5% | viability, T/C (second compound 0.0316 µM, first compound 0.949 µM): 26.8% | viability, T/C (second compound 0.0316 µM, first compound 3 µM): 27.6% | viability, T/C [20]: 108% | viability, T/C [21]: 99.7% | viability, T/C [22]: 25% | viability, T/C [23]: 21.7% | viability, T/C [24]: 26.9% | viability, T/C [25]: 27.2% | viability, T/C [26]: 94.5% | viability, T/C [27]: 72.3% | viability, T/C [28]: 21.3% | viability, T/C [29]: 22.3% | viability, T/C [30]: 27.1% | viability, T/C [31]: 30.4% | viability, T/C [32]: 63% | viability, T/C [33]: 37.8% | viability, T/C [34]: 19.6% | viability, T/C [35]: 22.8% | viability, T/C [36]: 27.5% | viability, T/C [37]: 32%
